Test results as given in patent US9926282B2, “Phthalazinones and isoquinolinones as rock inhibitors” (BRISTOL-MYERS SQUIBB COMPANY, priority 2013, dated 2018).

Legend:
[1] = biological target: ROCK1 (Homo sapiens (Human), UniProt Q13464); test: ROCK assay (LABCHIP peptide phosphorylation), ROCK1; format: biochemical; settings: 5 μM ATP, 1.5 μM peptide substrate; read-out: ROCK1 IC50
[2] = biological target: ROCK2 (Homo sapiens (Human), UniProt O75116); test: ROCK assay (LABCHIP peptide phosphorylation), ROCK2; format: biochemical; settings: 5 μM ATP, 1.5 μM peptide substrate
Chain of ROCK2 (O75116 whole entry, species assumed): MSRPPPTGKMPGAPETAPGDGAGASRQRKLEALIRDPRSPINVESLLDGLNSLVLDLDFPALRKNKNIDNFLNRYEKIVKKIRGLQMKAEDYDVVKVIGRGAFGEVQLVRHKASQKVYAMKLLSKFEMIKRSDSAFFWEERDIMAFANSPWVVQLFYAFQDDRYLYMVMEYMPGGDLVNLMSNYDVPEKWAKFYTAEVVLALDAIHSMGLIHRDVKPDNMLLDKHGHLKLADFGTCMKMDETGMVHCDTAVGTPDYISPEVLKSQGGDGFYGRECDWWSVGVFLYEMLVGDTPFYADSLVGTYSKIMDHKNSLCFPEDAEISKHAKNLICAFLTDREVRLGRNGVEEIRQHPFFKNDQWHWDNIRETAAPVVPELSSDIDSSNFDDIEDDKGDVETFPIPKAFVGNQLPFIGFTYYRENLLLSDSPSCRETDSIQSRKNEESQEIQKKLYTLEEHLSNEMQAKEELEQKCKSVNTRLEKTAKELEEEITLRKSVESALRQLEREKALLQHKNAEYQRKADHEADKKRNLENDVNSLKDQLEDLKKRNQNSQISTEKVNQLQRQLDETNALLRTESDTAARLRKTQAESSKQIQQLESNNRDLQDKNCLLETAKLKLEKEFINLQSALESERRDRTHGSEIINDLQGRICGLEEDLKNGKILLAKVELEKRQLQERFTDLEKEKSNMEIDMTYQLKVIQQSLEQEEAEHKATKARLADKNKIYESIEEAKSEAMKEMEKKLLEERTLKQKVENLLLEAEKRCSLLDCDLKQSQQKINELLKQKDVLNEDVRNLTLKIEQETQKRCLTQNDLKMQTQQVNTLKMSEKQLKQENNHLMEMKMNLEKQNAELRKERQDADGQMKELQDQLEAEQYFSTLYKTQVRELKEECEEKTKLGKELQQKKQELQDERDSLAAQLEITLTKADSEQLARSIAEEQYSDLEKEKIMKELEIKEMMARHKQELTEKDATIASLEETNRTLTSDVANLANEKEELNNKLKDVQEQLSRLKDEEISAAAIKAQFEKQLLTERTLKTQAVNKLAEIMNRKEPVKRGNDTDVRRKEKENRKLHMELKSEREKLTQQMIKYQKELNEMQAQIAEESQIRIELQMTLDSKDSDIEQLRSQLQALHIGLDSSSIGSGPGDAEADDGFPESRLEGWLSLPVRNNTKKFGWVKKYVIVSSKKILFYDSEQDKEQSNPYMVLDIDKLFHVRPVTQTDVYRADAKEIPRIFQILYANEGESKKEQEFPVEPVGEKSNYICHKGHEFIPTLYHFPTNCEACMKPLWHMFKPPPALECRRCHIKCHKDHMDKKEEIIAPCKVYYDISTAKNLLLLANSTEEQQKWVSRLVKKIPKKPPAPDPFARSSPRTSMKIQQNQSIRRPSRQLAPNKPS

Chain of ROCK1 (Q13464 whole entry, species assumed): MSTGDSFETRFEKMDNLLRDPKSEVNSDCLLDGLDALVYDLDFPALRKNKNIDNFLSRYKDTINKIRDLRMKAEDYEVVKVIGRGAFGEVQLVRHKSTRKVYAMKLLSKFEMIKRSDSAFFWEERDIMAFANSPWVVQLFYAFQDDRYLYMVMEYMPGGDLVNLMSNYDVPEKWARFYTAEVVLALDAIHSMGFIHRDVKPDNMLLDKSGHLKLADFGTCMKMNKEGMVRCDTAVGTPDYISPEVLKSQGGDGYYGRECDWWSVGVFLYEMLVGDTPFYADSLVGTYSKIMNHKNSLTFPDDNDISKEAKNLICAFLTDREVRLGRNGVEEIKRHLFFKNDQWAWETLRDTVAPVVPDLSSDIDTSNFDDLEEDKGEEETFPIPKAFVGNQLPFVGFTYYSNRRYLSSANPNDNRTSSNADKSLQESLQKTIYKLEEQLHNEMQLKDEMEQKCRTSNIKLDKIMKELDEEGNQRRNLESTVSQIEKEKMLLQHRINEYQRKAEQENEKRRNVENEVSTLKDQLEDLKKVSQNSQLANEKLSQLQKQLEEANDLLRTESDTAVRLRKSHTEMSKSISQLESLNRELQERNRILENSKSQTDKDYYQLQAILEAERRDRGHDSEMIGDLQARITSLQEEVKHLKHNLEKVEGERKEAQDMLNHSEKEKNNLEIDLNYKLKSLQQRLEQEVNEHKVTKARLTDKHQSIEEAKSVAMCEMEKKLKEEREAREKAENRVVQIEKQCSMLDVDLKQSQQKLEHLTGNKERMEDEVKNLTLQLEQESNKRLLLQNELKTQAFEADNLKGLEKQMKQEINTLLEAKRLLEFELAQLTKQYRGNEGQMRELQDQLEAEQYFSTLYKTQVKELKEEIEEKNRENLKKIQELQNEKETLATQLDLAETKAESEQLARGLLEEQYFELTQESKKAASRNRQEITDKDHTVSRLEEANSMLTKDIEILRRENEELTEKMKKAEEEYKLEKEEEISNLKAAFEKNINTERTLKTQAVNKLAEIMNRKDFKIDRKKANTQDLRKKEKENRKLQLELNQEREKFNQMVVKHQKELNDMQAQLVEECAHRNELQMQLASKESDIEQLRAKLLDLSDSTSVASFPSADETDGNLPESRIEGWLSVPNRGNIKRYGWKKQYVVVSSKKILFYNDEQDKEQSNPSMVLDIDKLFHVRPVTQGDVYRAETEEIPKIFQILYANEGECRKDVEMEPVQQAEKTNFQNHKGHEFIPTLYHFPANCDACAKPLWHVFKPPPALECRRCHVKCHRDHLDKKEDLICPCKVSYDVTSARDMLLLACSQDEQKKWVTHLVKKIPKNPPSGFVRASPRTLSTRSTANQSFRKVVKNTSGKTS

IC50 [1] [nM]	IC50 [2] [nM]	SMILES
1000 to 50000	0.1 to 100	COc1ccc2c(-c3ccc(NC(=O)c4cn5ccccc5n4)cc3)n[nH]c(=O)c2c1 [Example 370, N-(4-(6-Methoxy-4-oxo-3,4-dihydrophthalazin-1-yl)phenyl)imidazo[1,2-a]pyridine-2-carboxamide]
1000 to 50000	101 to 1000	O=C(Cc1ccc(-c2n[nH]c(=O)c3ccccc23)cc1)N1CCC(c2ccccc2)CC1 [Example 11, 4-{4-[2-oxo-2-(4-phenylpiperidin-1-yl)ethyl]phenyl}-1,2-dihydrophthalazin-1-one]
1000 to 50000	1000 to 50000	O=C(Nc1ccc(-c2n[nH]c(=O)c3ccccc23)cc1)C1CCN(Cc2ccccc2)C1 (stereo not shown) [Example 59, 1-benzyl-N-[4-(4-oxo-3,4-dihydrophthalazin-1-yl)phenyl]pyrrolidine-3-carboxamide]
0.1 to 100	0.1 to 100	Cn1nc(C2CC2)cc1C(=O)Nc1ccc(-c2n[nH]c(=O)c3ccccc23)cc1 [Example 407, 3-Cyclopropyl-1-methyl-N-(4-(4-oxo-3,4-dihydrophthalazin-1-yl)phenyl)-1H-pyrazole-5-carboxamide]
1000 to 50000	101 to 1000	O=C(Nc1ccc(-c2n[nH]c(=O)c3ccccc23)cc1)C1CC(=O)N(c2ccccc2)C1 (stereo not shown) [Example 217, 5-oxo-N-[4-(4-oxo-3,4-dihydrophthalazin-1-yl)phenyl]-1-phenylpyrrolidine-3-carboxamide]
1000 to 50000	101 to 1000	O=C(Nc1ccc(-c2n[nH]c(=O)c3ccccc23)cc1)C1CC(c2cccc(Cl)c2F)=NO1 (stereo not shown) [Example 193, 3-(3-chloro-2-fluorophenyl)-N-[4-(4-oxo-3,4-dihydrophthalazin-1-yl)phenyl]-4,5-dihydro-1,2-oxazole-5-carboxamide]
0.1 to 100	0.1 to 100	O=C(COc1ccc2c(c1)N(C(=O)Cc1ccc(-c3n[nH]c(=O)c4ccccc34)cc1)CC2)N1CCOCC1 [Example 297, 4-(4-(2-(6-(2-Morpholino-2-oxoethoxy)indolin-1-yl)-2-oxoethyl)phenyl)phthalazin-1(2H)-one]
101 to 1000	0.1 to 100	Cc1cc(NC(=O)c2onc3ccccc23)ccc1-c1n[nH]c(=O)c2ccccc12 [Example 306, N-[3-methyl-4-(4-oxo-3,4-dihydrophthalazin-1-yl)phenyl]-2,1-benzoxazole-3-carboxamide]
0.1 to 100	0.1 to 100	Cn1nc(C(=O)Nc2ccc(-c3n[nH]c(=O)c4ccccc34)cc2)cc1C12CC3CC(CC(C3)C1)C2 [Example 201, 5-(adamantan-1-yl)-1-methyl-N-[4-(4-oxo-3,4-dihydrophthalazin-1-yl)phenyl]-1H-pyrazole-3-carboxamide]
0.1 to 100	0.1 to 100	Cc1cccc(-n2cnc(C(=O)Nc3ccc(-c4n[nH]c(=O)c5ccccc45)cc3)c2)c1 [Example 195, 1-(3-methylphenyl)-N-[4-(4-oxo-3,4-dihydrophthalazin-1-yl)phenyl]-1H-imidazole-4-carboxamide]
1000 to 50000	0.1 to 100	O=C(Cc1ccc(-c2n[nH]c(=O)c3ccccc23)cc1)Nc1noc2c1CCCC2 [Example 276, 2-[4-(4-oxo-3,4-dihydrophthalazin-1-yl)phenyl]-N-(4,5,6,7-tetrahydro-1,2-benzoxazol-3-yl)acetamide]
0.1 to 100	0.1 to 100	O=C(Cc1ccc(-c2n[nH]c(=O)c3ccccc23)cc1)N1CCc2ccc(OCC3COC3)cc21 [Example 284, 4-(4-{2-[6-(oxetan-3-ylmethoxy)-2,3-dihydro-1H-indol-1-yl]-2-oxoethyl}phenyl)-1,2-dihydrophthalazin-1-one]

More lines, now with the values behind:

SMILES	IC50 [1] [nM]	IC50 [2] [nM]
Cc1noc(-c2ccc(CO)cc2)c1C(=O)Nc1ccc(-c2n[nH]c(=O)c3ccccc23)cc1 [Example 224, 5-[4-(hydroxymethyl)phenyl]-3-methyl-N-[4-(4-oxo-3,4-dihydrophthalazin-1-yl)phenyl]-1,2-oxazole-4-carboxamide]	0.1 to 100	0.1 to 100
O=C(Nc1ccc(-c2n[nH]c(=O)c3ccccc23)cc1)c1nn(CCO)c2ccccc12 [Example 155, 1-(2-hydroxyethyl)-N-[4-(4-oxo-3,4-dihydrophthalazin-1-yl)phenyl]-1H-indazole-3-carboxamide]	0.1 to 100	0.1 to 100
O=C(Cc1ccc(-c2n[nH]c(=O)c3ccccc23)cc1)Nc1nc2ccccc2o1 [Example 10, N-(1,3-benzoxazol-2-yl)-2-[4-(4-oxo-3,4-dihydrophthalazin-1-yl)phenyl]acetamide]	101 to 1000	0.1 to 100
COc1cccc2cc(C(=O)Nc3ccc(-c4n[nH]c(=O)c5ccccc45)c(C)c3)[nH]c12 [Example 309, 7-methoxy-N-[3-methyl-4-(4-oxo-3,4-dihydrophthalazin-1-yl)phenyl]-1H-indole-2-carboxamide]	0.1 to 100	0.1 to 100
CCCc1c(C(=O)Nc2ccc(-c3n[nH]c(=O)c4ccccc34)cc2)nnn1-c1ccccc1 [Example 231, N-[4-(4-oxo-3,4-dihydrophthalazin-1-yl)phenyl]-1-phenyl-5-propyl-1H-1,2,3-triazole-4-carboxamide]	101 to 1000	0.1 to 100
O=C(Cc1ccc(-c2n[nH]c(=O)c3ccccc23)cc1)N1CCc2ccc([N+](=O)[O-])cc21 [Example 285, 4-{4-[2-(6-nitro-2,3-dihydro-1H-indol-1-yl)-2-oxoethyl]phenyl}-1,2-dihydrophthalazin-1-one]	0.1 to 100	0.1 to 100
Cc1nn(-c2ccccc2)c(C)c1C(=O)Nc1ccc(-c2n[nH]c(=O)c3ccccc23)cc1 [Example 219, 3,5-dimethyl-N-[4-(4-oxo-3,4-dihydrophthalazin-1-yl)phenyl]-1-phenyl-1H-pyrazole-4-carboxamide]	0.1 to 100	0.1 to 100
Cc1cc(NC(=O)c2nn(CC3CN(C)C3)c3ccccc23)ccc1-c1n[nH]c(=O)c2ccccc12 [Example 330, N-(3-Methyl-4-(4-oxo-3,4-dihydrophthalazin-1-yl)phenyl)-1-((1-methylazetidin-3-yl)methyl)-1H-indazole-3-carboxamide]	0.1 to 100	101 to 1000
CN1CCC(Cn2nc(C(=O)Nc3ccc(-c4n[nH]c(=O)c5ccccc45)cc3)c3ccccc32)CC1 [Example 356, 1-((1-Methylpiperidin-4-yl)methyl)-N-(4-(4-oxo-3,4-dihydrophthalazin-1-yl)phenyl)-1H-indazole-3-carboxamide]	0.1 to 100	101 to 1000
Cc1cc(NC(=O)c2cnc3ccccn23)ccc1-c1n[nH]c(=O)c2ccccc12 [Example 312, N-[3-methyl-4-(4-oxo-3,4-dihydrophthalazin-1-yl)phenyl]imidazo [1,2-a]pyridine-3-carboxamide]	101 to 1000	0.1 to 100
O=C(c1ccc2c(c1)N(C(=O)Cc1ccc(-c3n[nH]c(=O)c4ccccc34)cc1)CC2)N1CCOCC1 [Example 293, 4-(4-{2-[6-(morpholine-4-carbonyl)-2,3-dihydro-1H-indol-1-yl]-2-oxoethyl}phenyl)-1,2-dihydrophthalazin-1-one]	101 to 1000	0.1 to 100
COc1cc(-c2n[nH]c(=O)c3ccccc23)ccc1NC(=O)c1nn(CC(C)(C)O)c2ccccc12 [Example 357, 1-(2-Hydroxy-2-methylpropyl)-N-(2-methoxy-4-(4-oxo-3,4-dihydrophthalazin-1-yl)phenyl)-1H-indazole-3-carboxamide]	1000 to 50000	101 to 1000
O=C(Nc1ccc(-c2n[nH]c(=O)c3ccccc23)cc1)c1nc2c(s1)CCCC2 [Example 53, N-[4-(4-oxo-3,4-dihydrophthalazin-1-yl)phenyl]-4,5,6,7-tetrahydro-1,3-benzothiazole-2-carboxamide]	0.1 to 100	0.1 to 100
O=C(Nc1ccc(-c2n[nH]c(=O)c3ccccc23)cc1)c1c[nH]c(-c2ccccc2)n1 [Example 230, N-[4-(4-oxo-3,4-dihydrophthalazin-1-yl)phenyl]-2-phenyl-1H-imidazole-4-carboxamide]	0.1 to 100	0.1 to 100
O=C(Nc1ccc(-c2n[nH]c(=O)c3ccccc23)cc1)c1c[nH]c2ncccc12 [Example 135, N-[4-(4-oxo-3,4-dihydrophthalazin-1-yl)phenyl]-1H-pyrrolo[2,3-b]pyridine-3-carboxamide]	101 to 1000	0.1 to 100
CC(C)(O)CNC(=O)Cn1nc(C(=O)Nc2ccc(-c3n[nH]c(=O)c4ccccc34)cc2)c2ccccc21 [Example 334, 1-(2-((2-Hydroxy-2-methylpropyl)amino)-2-oxoethyl)-N-(4-(4-oxo-3,4-dihydrophthalazin-1-yl)phenyl)-1H-indazole-3-carboxamide]	0.1 to 100	0.1 to 100
CC(C)(O)Cn1nc(C(=O)Nc2ccc(-c3n[nH]c(=O)c4ccccc34)c(CO)c2)c2ccccc21 [Example 360, 1-(2-Hydroxy-2-methylpropyl)-N-(3-(hydroxymethyl)-4-(4-oxo-3,4-dihydrophthalazin-1-yl)phenyl)-1H-indazole-3-carboxamide]	1000 to 50000	0.1 to 100
Cc1ccn2cc(C(=O)Nc3ccc(-c4n[nH]c(=O)c5ccccc45)cc3)nc2c1 [Example 126, 7-methyl-N-[4-(4-oxo-3,4-dihydrophthalazin-1-yl)phenyl]imidazo[1,2-a]pyridine-2-carboxamide]	101 to 1000	0.1 to 100
O=C(Nc1ccc(-c2n[nH]c(=O)c3ccccc23)cc1)c1cnn(C2CCNC2)c1 (stereo not shown) [Example 397, N-(4-(4-Oxo-3,4-dihydrophthalazin-1-yl)phenyl)-1-(pyrrolidin-3-yl)-1H-pyrazole-4-carboxamide]	1000 to 50000	101 to 1000
CC(=O)N1CC(Cn2nc(C(=O)Nc3ccc(-c4n[nH]c(=O)c5ccccc45)c(Cl)c3)c3ccccc32)C1 [Example 329, 1-((1-Acetylazetidin-3-yl)methyl)-N-(3-chloro-4-(4-oxo-3,4-dihydrophthalazin-1-yl)phenyl)-1H-indazole-3-carboxamide]	0.1 to 100	0.1 to 100
